The assay deals with glutaminyl cyclase (QC) (Homo sapiens, UniProt Q16769). Description: QC inhibitor assay (fluorometric / spectrophotometric QC activity assays with inhibitor added). The class given is biochemical. To be noted: QC inhibition, 30° C.; for Ki: fit to competitive inhibition. How it is done: All measurements were performed with a BioAssay Reader HTS-7000Plus for microplates (Perkin Elmer) at 30° C. QC activity was evaluated fluorometrically using […]. The samples consisted of 0.2 mM fluorogenic substrate, 0.25 U pyroglutamyl aminopeptidase (Unizyme, Horsholm, Denmark) in 0.2 M Tris/HCl, pH 8.0 containing 20 mM EDTA and an appropriately diluted aliquot of QC in a final volume of 250 μl. Excitation/emission wavelengths were 320/410 nm. The assay reactions were initiated by addition of glutaminyl cyclase. QC activity was determined from a standard curve of β-naphthylamine under assay conditions. One unit is defined as the amount of QC catalyzing the formation of 1 μmol pGlu-βNA from H-Gln-βNA per minute under the described conditions.
Sequence of glutaminyl cyclase (QC) (Q16769 29-361): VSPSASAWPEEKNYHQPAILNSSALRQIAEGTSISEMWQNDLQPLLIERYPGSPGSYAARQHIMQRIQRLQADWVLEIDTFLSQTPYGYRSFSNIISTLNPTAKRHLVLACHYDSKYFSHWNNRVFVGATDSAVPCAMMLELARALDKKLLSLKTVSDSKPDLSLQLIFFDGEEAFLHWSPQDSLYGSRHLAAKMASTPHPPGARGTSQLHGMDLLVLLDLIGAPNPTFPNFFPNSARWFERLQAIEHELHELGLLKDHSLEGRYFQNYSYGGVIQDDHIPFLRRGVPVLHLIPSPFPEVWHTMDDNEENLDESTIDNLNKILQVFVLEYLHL
In a second fluorometric assay, QC was activity determined using H-Gln-AMC as substrate. Reactions were carried out at 30° C. utilizing the NOVOStar reader for microplates (BMG labtechnologies). The samples consisted of varying concentrations of the fluorogenic substrate, 0.1 U pyroglutamyl aminopeptidase (Qiagen) in 0.05 M Tris/HCl, pH 8.0 containing 5 mM EDTA and an appropriately diluted aliquot of QC in a final volume of 250 μl. Excitation/emission wavelengths were 380/460 nm. The assay reactions were initiated by addition of glutaminyl cyclase. QC activity was determined from a standard curve of 7-amino-4-methylcoumarin under assay conditions. The kinetic data were evaluated using GraFit software.
This novel assay was used to determine the kinetic parameters for most of the QC substrates. […] Samples consisted of the respective QC substrate, 0.3 mM NADH, 14 mM α-Ketoglutaric acid and 30 U/ml glutamate dehydrogenase in a final volume of 250 μl. Reactions were started by addition of QC and persued by monitoring of the decrease in absorbance at 340 nm for 8-15 min.
The initial velocities were evaluated and the enzymatic activity was determined from a standard curve of ammonia under assay conditions. All samples were measured at 30° C., using either the […]luor Plus or the Sunrise (both from TECAN) reader for microplates. Kinetic data was evaluated using GraFit software.
For inhibitor testing, the sample composition was the same as described above, except of the putative inhibitory compound added. For a rapid test of QC-inhibition, samples contained 4 mM of the respective inhibitor and a substrate concentration at 1 KM. For detailed investigations of the inhibition and determination of Ki-values, influence of the inhibitor on the auxiliary enzymes was investigated first. […] The inhibitory constant was evaluated by fitting the set of progress curves to the general equation for competitive inhibition using GraFit software.

One may read the IC50 as the midpoint of a concentration-inhibition curve. In general, Ki refers to the equilibrium dissociation constant of an inhibitor or competing ligand from its target. The low end stands for a stronger hold on the target, the high end for a looser hold on the target.

In turn, `c1ccc(COc2ccc(-c3cccn4cncc34)cc2)cc1` [Example 17, 8-(4-(benzyloxy)phenyl)H-imidazo[1,5-a]pyridine] had a half-inhibitory concentration (IC50) of 4.36 µM and an inhibition constant Ki of 0.75 µM.
`CCCCc1cccn2cncc12` [Example 1, 8-butylH-imidazo[1,5-a]pyridine] gave an IC50 of 13.2 µM and an inhibition constant (Ki) of 3.7 µM.
On the same counts, the results for `COc1cccc(-c2cccn3cncc23)c1` [Example 13, 8-(3-methoxyphenyl)H-imidazo[1,5-a]pyridine] are 6.19 µM and 1.1 µM.
`c1ccc(-c2cccc(-c3cccn4cncc34)c2)cc1` [Example 19, 8-(biphen-3-yl)H-imidazo[1,5-a]pyridine] returned an IC50 of 10.9 µM and a Ki of 2.51 µM.
`COc1c(C)cc(-c2cccn3cncc23)cc1C` [Example 27, 8-(4-methoxy-3,5-dimethylphenyl)H-imidazo[1,5-a]pyridine] registered an IC50 of 27.4 µM and an inhibition constant Ki of 4.92 µM.
On the same counts, the results for `FC(F)(F)Oc1ccccc1-c1cccn2cncc12` [Example 21, 8-(2-(trifluoromethoxy)phenyl)H-imidazo[1,5-a]pyridine] are 36.5 µM and 14.5 µM.
As for `Fc1cccc(-c2cccn3cncc23)c1` [Example 6, 8-(3-fluorophenyl)H-imidazo[1,5-a]pyridine], the IC50 worked out at 9.71 µM and affinity was put at a Ki of 2.02 µM.
In the case of `c1ccc(Cc2cccn3cncc23)cc1` [Example 2, 8-benzylH-imidazo[1,5-a]pyridine], the IC50 amounted to 18.9 µM and the Ki was 5.5 µM.
Turning to `c1ccc(-c2cccn3cncc23)cc1` [Example 4, 8-phenylH-imidazo[1,5-a]pyridine], the IC50 is 8.22 µM and the Ki is 1.3 µM.
On the same counts, the results for `c1cc(-c2ccc3c(c2)OCCO3)c2cncn2c1` [Example 25, 8-(2,3-dihydrobenzo[b][1,4]dioxin-7-yl)H-imidazo[1,5-a]pyridine] are 9.17 µM and 1.19 µM.
Taken in the same sequence, the figures for `c1cc(-c2ccc3c(c2)OCO3)c2cncn2c1` [Example 23, 8-(benzo[d][1,3]dioxol-6-yl)H-imidazo[1,5-a]pyridine] were 29.2 µM and 3.46 µM.
On the same counts, the results for `COc1ccc(-c2cccn3cncc23)cc1C` [Example 24, 8-(4-methoxy-3-methylphenyl)H-imidazo[1,5-a]pyridine] are 26.4 µM and 2.66 µM.
`CC(C)Cc1cccn2cncc12` [Example 3, 8-isobutylH-imidazo[1,5-a]pyridine] came in with an IC50 of 20 µM and a Ki of 3.7 µM.
For the compound `c1ccc(COc2ccccc2-c2cccn3cncc23)cc1` [Example 15, 8-(2-(benzyloxy)phenyl)H-imidazo[1,5-a]pyridine], the IC50 was 23.6 µM and affinity was put at a Ki of 5.38 µM.
`c1ccc(COc2cccc(-c3cccn4cncc34)c2)cc1` [Example 16, 8-(3-(benzyloxy)phenyl)H-imidazo[1,5-a]pyridine] displayed an IC50 of 7.81 µM and a Ki of 1.48 µM.
In turn, `COc1ccc(-c2cccn3cncc23)cc1OC` [Example 26, 8-(3,4-dimethoxyphenyl)H-imidazo[1,5-a]pyridine] returned an IC50 of 15.4 µM and a Ki of 9.38 µM.
Turning to `c1ccc(-c2ccc(-c3cccn4cncc34)cc2)cc1` [Example 20, 8-(biphen-4-yl)H-imidazo[1,5-a]pyridine], the IC50 stood at 20.6 µM and the affinity, expressed as Ki, was 2.13 µM.
Taken in the same sequence, the figures for `Fc1ccc(-c2cccn3cncc23)cc1` [Example 7, 8-(4-fluorophenyl)H-imidazo[1,5-a]pyridine] were 10.6 µM and 1.87 µM.
Regarding `Clc1ccc(-c2cccn3cncc23)cc1` [Example 10, 8-(4-chlorophenyl)H-imidazo[1,5-a]pyridine], the IC50 turned out to be 5.51 µM and the inhibition constant Ki was found to be 1.11 µM.
On the same counts, the results for `Clc1ccccc1-c1cccn2cncc12` [Example 8, 8-(2-chlorophenyl)H-imidazo[1,5-a]pyridine] are 47.7 µM and 15.2 µM.
On the same counts, the results for `Clc1cccc(-c2cccn3cncc23)c1` [Example 9, 8-(3-chlorophenyl)H-imidazo[1,5-a]pyridine] are 17.2 µM and 2.25 µM.
Taken in the same sequence, the figures for `c1ccc(-c2ccccc2-c2cccn3cncc23)cc1` [Example 18, 8-(biphen-2-yl)H-imidazo[1,5-a]pyridine] were 36.5 µM and 11 µM.
With `CCOc1ccc(-c2cccn3cncc23)cc1` [Example 22, 8-(4-ethoxyphenyl)H-imidazo[1,5-a]pyridine], the IC50 was found to be 14.3 µM and the inhibition constant (Ki) is 1.89 µM.
Taken in the same sequence, the figures for `Fc1ccccc1-c1cccn2cncc12` [Example 5, 8-(2-fluorophenyl)H-imidazo[1,5-a]pyridine] were 20.6 µM and 3.14 µM.
`COc1ccccc1-c1cccn2cncc12` [Example 12, 8-(2-methoxyphenyl)H-imidazo[1,5-a]pyridine] registered an IC50 of 13.6 µM and a Ki of 3.98 µM.

These data come from US7803810B2, “Inhibitors” (Probiodrug AG, priority 2007, dated 2010).
